In patent US12692223B2, “Phenyl-sulfamoyl-benzoic acid derivatives as ERAP1-modulators” (GREY WOLF THERAPEUTICS LIMITED, priority 2021, dated 2026):

Target: T1, ERAP1 (Homo sapiens, UniProt Q9NZ08)
T1 construct: Purified ERAP1(37-941)-10His (ERAP1)
Experiment: ERAP1 mediated hydrolysis of an amide substrate measured in a biochemical system (10-mer inhibition assay)
Conditions: purified ERAP1(37-941)-10His; 10-mer substrate; 23° C. for 1 h; excitation 279 nm, emission 355 nm; read-out: IC50 vs Decapeptide WRVYEKC(Dnp)ALK-acid (where Dnp is Dinitrophenyl maleimide) (10-mer)
In short: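 Purified ERAP1(37-941)-10His in 25 mM Bis-tris propane, 0.05% HPMC, pH 7.75, with compound, then 100 μM 10-mer WRVYEKC(Dnp)ALK or 240 μM L-AMC added (stock concentrations before 1:1 mixing), 1 h at 23 °C. Fluorescence read at ex 279/em 355 nm (10-mer) or ex 365/em 442 nm (L-AMC); IC50 from 4-parameter fit.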

T1 sequence (Q9NZ08 37-941): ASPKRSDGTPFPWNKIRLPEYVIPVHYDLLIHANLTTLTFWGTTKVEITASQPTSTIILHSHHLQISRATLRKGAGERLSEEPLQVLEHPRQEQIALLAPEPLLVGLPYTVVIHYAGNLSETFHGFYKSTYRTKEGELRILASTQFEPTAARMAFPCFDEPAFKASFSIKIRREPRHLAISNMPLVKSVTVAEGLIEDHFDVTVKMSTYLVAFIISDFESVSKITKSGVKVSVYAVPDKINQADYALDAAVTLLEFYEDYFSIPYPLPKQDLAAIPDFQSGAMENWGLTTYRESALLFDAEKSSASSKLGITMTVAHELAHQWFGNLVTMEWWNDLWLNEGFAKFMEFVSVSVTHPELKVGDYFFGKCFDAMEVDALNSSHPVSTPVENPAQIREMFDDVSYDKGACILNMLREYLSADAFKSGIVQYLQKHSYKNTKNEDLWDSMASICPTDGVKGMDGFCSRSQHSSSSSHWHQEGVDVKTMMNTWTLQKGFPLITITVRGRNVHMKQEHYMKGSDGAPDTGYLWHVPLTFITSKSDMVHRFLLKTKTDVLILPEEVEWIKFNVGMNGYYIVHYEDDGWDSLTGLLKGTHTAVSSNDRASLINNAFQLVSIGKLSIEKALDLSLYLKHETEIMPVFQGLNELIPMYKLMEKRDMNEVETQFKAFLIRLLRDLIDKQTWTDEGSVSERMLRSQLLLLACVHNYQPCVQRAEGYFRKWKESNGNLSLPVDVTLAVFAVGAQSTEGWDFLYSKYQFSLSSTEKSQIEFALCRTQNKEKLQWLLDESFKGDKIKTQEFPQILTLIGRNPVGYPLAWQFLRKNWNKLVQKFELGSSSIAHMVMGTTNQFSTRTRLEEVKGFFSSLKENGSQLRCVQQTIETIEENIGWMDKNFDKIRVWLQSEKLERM

IC50 | Compound
< 1 nM | N#Cc1cc(NS(=O)(=O)c2cc(C(=O)O)ccc2C2CC2)c(OC2CCCC2(F)F)cc1Cl (stereo not shown) [Example 83, 3-(N-(4-chloro-5-cyano-2-((2,2-difluorocyclopentyl)oxy)phenyl)sulfamoyl)-4-cyclopropylbenzoic acid]
< 1 nM | COC1(COc2cc(Cl)c(C#N)cc2NS(=O)(=O)c2cc(C(=O)O)ccc2C2CC2)CCC1 [Example 87, 3-(N-(4-chloro-5-cyano-2-((1-methoxycyclobutyl)methoxy)phenyl)sulfamoyl)-4-cyclopropylbenzoic acid]
< 1 nM | N#Cc1cc(NS(=O)(=O)c2cc(C(=O)O)ccc2C2CC2)c(O[C@@H]2CCC[C@H]2O)cc1Cl [Example 97, 3-(N-(4-chloro-5-cyano-2-(((1R,2R)−2-hydroxycyclopentyl)oxy)phenyl)sulfamoyl)-4-cyclopropylbenzoic acid]
< 1 nM | CO[C@@H]1CCC[C@H]1Oc1cc(Cl)c(C#N)cc1NS(=O)(=O)c1cc(C(=O)O)ccc1C1CC1 [Example 109, 3-(N-(4-chloro-5-cyano-2-(((1R,2R)-2-methoxycyclopentyl)oxy)phenyl)sulfamoyl)-4-cyclopropylbenzoic acid]
< 1 nM | CC1(C)CCC[C@H]1Oc1cc(F)c(-n2cnnn2)cc1NS(=O)(=O)c1cc(C(=O)O)ccc1C1CC1 [Example 125, (R)-4-cyclopropyl-3-(N-(2-((2,2-dimethylcyclopentyl)oxy)-4-fluoro-5-(1H-tetrazol-1-yl)phenyl)sulfamoyl)benzoic acid]
< 1 nM | N#Cc1cc(NS(=O)(=O)c2cc(C(=O)O)ccc2C2CC2)c(OC2CCC(F)(F)C2)cc1Cl (stereo not shown) [Example 134, 3-(N-(4-chloro-5-cyano-2-((3,3-difluorocyclopentyl)oxy)phenyl)sulfa-moyl)-4-cyclopropylbenzoic acid]

Compound | IC50
CO[C@H]1C[C@H](Oc2cc(Cl)c(C#N)cc2NS(=O)(=O)c2cc(C(=O)O)ccc2C2CC2)C1 [Example 95, 3-(N-(4-chloro-5-cyano-2-(trans-3-methoxycyclobutoxy)phenyl)sulfamoyl)-4-cyclopropylbenzoic acid] | > 5 nM
N#Cc1cc(NS(=O)(=O)c2cc(C(=O)O)ccc2C2CC2)c(O[C@H]2C[C@H](O)C2)cc1Cl [Example 96, 3-(N-(4-chloro-5-cyano-2-(trans-3-hydroxycyclobutoxy)phenyl)sulfamoyl)-4-cyclopropylbenzoic acid] | < 1 nM
CC1(C)CC(C)(C)C1Oc1cc(Cl)c(C#N)cc1NS(=O)(=O)c1cc(C(=O)O)ccc1C1CC1 [Example 101, 3-(N-(4-chloro-5-cyano-2-(2,2,4,4-tetramethylcyclo-butoxy)phenyl)sulfamoyl)-4-cyclopropylbenzoic acid] | > 5 nM
N#Cc1cc(NS(=O)(=O)c2cc(C(=O)O)ccc2C2CC2)c(O[C@H]2C[C@@H](O)C2)cc1Cl [Example 112, 3-(N-(4-chloro-5-cyano-2-(cis-3-hydroxycyclobutoxy)phenyl)sulfamoyl)-4-cyclopropylbenzoic acid] | > 5 nM
